In the CheMixHub viscosity set:
± gives the uncertainty stated by the source.

Experiment: xn = mol fraction of the nth substance listed

Nc1cccc(Cl)c1 + CC(=O)c1ccccc1
viscosity [mPa·s], 100 kPa
Conditions	x1 = 0.0807	x1 = 0.1719	x1 = 0.2629	x1 = 0.3608	x1 = 0.4656	x1 = 0.5646	x1 = 0.6658	x1 = 0.7765	x1 = 0.8859
303.15 K	1.647 ± 0.1	1.812 ± 0.1	1.993 ± 0.1	2.206 ± 0.1	2.459 ± 0.1	2.723 ± 0.1	3.022 ± 0.1	3.386 ± 0.1	3.788 ± 0.1
308.15 K	1.538 ± 0.1	1.688 ± 0.1	1.85 ± 0.1	2.041 ± 0.1	2.266 ± 0.1	2.5 ± 0.1	2.764 ± 0.1	3.084 ± 0.1	3.436 ± 0.1
313.15 K	1.38 ± 0.1	1.515 ± 0.1	1.66 ± 0.1	1.83 ± 0.1	2.031 ± 0.1	2.239 ± 0.1	2.474 ± 0.1	2.758 ± 0.1	3.069 ± 0.1
318.15 K	1.218 ± 0.1	1.337 ± 0.1	1.466 ± 0.1	1.616 ± 0.1	1.793 ± 0.1	1.976 ± 0.1	2.183 ± 0.1	2.433 ± 0.1	2.707 ± 0.1

ClCCCCCl + CC(C)(C)O
viscosity [mPa·s], 101 kPa
Conditions	x1 = 0.1005	x1 = 0.2009	x1 = 0.2964	x1 = 0.435	x1 = 0.5026	x1 = 0.602	x1 = 0.7061	x1 = 0.8038	x1 = 0.9014
298.15 K	2.618 ± 0.025	1.826 ± 0.018	1.482 ± 0.014	1.315 ± 0.012	1.257 ± 0.012	1.202 ± 0.011	1.18 ± 0.011	1.182 ± 0.011	1.208 ± 0.011
313.15 K	1.495 ± 0.019	1.18 ± 0.013	1.035 ± 0.01	0.9459 ± 0.0096	0.9313 ± 0.0093	0.9139 ± 0.009	0.916 ± 0.009	0.9291 ± 0.0092	0.9613 ± 0.0095

Nc1cccc(Cl)c1 + CC(C)(C)O
viscosity [mPa·s], 101 kPa
Conditions	x1 = 0.0912	x1 = 0.1842	x1 = 0.279	x1 = 0.3758	x1 = 0.4745	x1 = 0.5753	x1 = 0.6782	x1 = 0.7832	x1 = 0.8904
303.15 K	3.097 ± 0.28	3.238 ± 0.29	3.382 ± 0.3	3.525 ± 0.31	3.659 ± 0.32	3.784 ± 0.33	3.901 ± 0.34	4.013 ± 0.35	4.127 ± 0.36
308.15 K	2.819 ± 0.25	2.953 ± 0.26	3.085 ± 0.28	3.213 ± 0.29	3.333 ± 0.3	3.445 ± 0.31	3.546 ± 0.31	3.644 ± 0.32	3.742 ± 0.33
313.15 K	2.283 ± 0.21	2.423 ± 0.22	2.562 ± 0.23	2.697 ± 0.24	2.828 ± 0.25	2.954 ± 0.26	3.075 ± 0.27	3.192 ± 0.28	3.308 ± 0.29
318.15 K	1.875 ± 0.17	2.015 ± 0.19	2.153 ± 0.2	2.289 ± 0.21	2.419 ± 0.22	2.544 ± 0.23	2.665 ± 0.24	2.781 ± 0.25	2.899 ± 0.26

C1C[C@@H]2[C@H]3CC[C@H](C3)[C@@H]2C1 + CC(C)CC(C)(C)C
viscosity [mPa·s], 100 kPa
Conditions	x1 = 0.1	x1 = 0.2002	x1 = 0.3008	x1 = 0.4003	x1 = 0.5008	x1 = 0.5997	x1 = 0.6982	x1 = 0.8002	x1 = 0.9012
293.15 K	0.593 ± 0.013	0.682 ± 0.015	0.795 ± 0.017	0.929 ± 0.02	1.102 ± 0.024	1.316 ± 0.028	1.582 ± 0.034	1.959 ± 0.043	2.405 ± 0.052
298.15 K	0.563 ± 0.012	0.643 ± 0.014	0.745 ± 0.016	0.868 ± 0.019	1.026 ± 0.022	1.219 ± 0.026	1.457 ± 0.032	1.799 ± 0.039	2.194 ± 0.048
303.15 K	0.532 ± 0.011	0.608 ± 0.013	0.701 ± 0.015	0.813 ± 0.017	0.958 ± 0.021	1.132 ± 0.024	1.347 ± 0.029	1.657 ± 0.036	2.008 ± 0.044
308.15 K	0.506 ± 0.011	0.574 ± 0.012	0.661 ± 0.014	0.764 ± 0.016	0.896 ± 0.019	1.056 ± 0.023	1.251 ± 0.027	1.534 ± 0.033	1.844 ± 0.04
313.15 K	0.483 ± 0.01	0.546 ± 0.012	0.626 ± 0.013	0.719 ± 0.015	0.842 ± 0.018	0.987 ± 0.021	1.164 ± 0.025	1.42 ± 0.031	1.701 ± 0.037
